Reference: US20100239635A1, “DRUG DELIVERY MEDICAL DEVICE” (MICELL TECHNOLOGIES, INC., priority 2009, published 2010)
Each block holds one compound with its values, some of them ahead of it.

Legend:
[1] = cited from earlier work
bladder cancer = conditions: optimized schedule: 40 mg/20 cc (compared with 20 mg/20 cc), overnight dehydration, complete bladder emptying, alkalinization with sodium bicarbonate; cited from earlier work
[2] = design: dose or concentration left out as unconfirmed; conditions: estradiol release, as its 3-acetate ester; cited from earlier work
[3] = In vivo study of coating and drug transfer from a stent, porcine coronary artery model; design: species or system Yucatan pig; conditions: for amount of drug detected in the arterial tissue: stent as in Example 1
Method: Another sample of the coated stent was prepared for in vivo evaluation in a porcine coronary artery model using the Yucatan pig. Subjects were initially given 650 mg acetylsalicylic acid and 300 mg Plavix. Maintenance doses of 81 mg acetylsalicylic acid and 75 mg Plavix were administered. The target ACT (activated clotting time) for the procedure was about 250 seconds. Stent oversizing in relation to the artery was about 10-20%. The preparation of the sirolimus-coated stent was the same as described in Example 1 and used for the in vitro deployment into tubing, except that the device was sterilized using ETO prior to implantation into the animal.
The bulk concentration of drug was measured in the arterial tissue surrounding the implanted stent at 1, 3, 7, 14, and 28 days after implant, and provided a quantitative measure of the high efficiency of transfer of drug into the therapeutic site using devices and methods of the invention. The amount of drug that was detected in the arterial tissue was as follows: 1 day after implant, ˜6 μg; 3 days after implant, ˜16 μg; 7 days after implant, ˜30 μg; 14 days after implant, ˜30 μg; 28 days after implant, ˜13 μg. Peak tissue concentration of sirolimus of ˜30 μg at 14 days after implant was representative of approximately ⅙^th of the total drug that had been loaded on the stent. Note that some drug likely metabolized or diffused out of the arterial tissue into other areas of the body.

[4] = given intravesically in doses as high as 1 billion units; cited from earlier work

Compound: CO[C@@]12[C@H](COC(N)=O)C3=C(C(=O)C(C)=C(N)C3=O)N1C[C@@H]1N[C@@H]12 [Mitomycin C, mitomycin C]
- stability in acid urine [1]: inactivated
- recurrence (bladder cancer): nearly cut in half

Compound: C[C@]12CC[C@@H]3c4ccc(O)cc4CC[C@H]3[C@@H]1CC[C@@H]2O [estradiol]
- circulating plasma concentration of the drug [2]: 300 pmol/L

- amount of drug detected in the arterial tissue ([3]; 1 day after implant): ~6 µg
- amount of drug detected in the arterial tissue ([3]; 3 days after implant): ~16 µg
- amount of drug detected in the arterial tissue ([3]; 7 days after implant): ~30 µg
- amount of drug detected in the arterial tissue ([3]; 14 days after implant): ~30 µg
- amount of drug detected in the arterial tissue ([3]; 28 days after implant): ~13 µg
- Peak tissue concentration of sirolimus ([3]; at 14 days after implant): ~30 µg
- peak tissue amount as fraction of the total drug loaded on the stent ([3]; at 14 days after implant): approximately ⅙
Compound: CO[C@H]1C[C@@H]2CC[C@@H](C)[C@@](O)(O2)C(=O)C(=O)N2CCCC[C@H]2C(=O)O[C@H]([C@H](C)C[C@@H]2CC[C@@H](O)[C@H](OC)C2)CC(=O)[C@H](C)/C=C(\C)[C@@H](O)[C@@H](OC)C(=O)[C@H](C)C[C@H](C)/C=C/C=C/C=C/1C [sirolimus]

Compound: Interferon Alpha 2b
- dose-limiting side effects [4]: without dose-limiting side effects
